Assay results from patent publication US12215234B2, “Process for the purification of methylene blue” (RK Pharma Solutions LLC, priority 2019, dated 2025).
Values joined by “and” are separate entries in the source; they are usually repeats but may differ in a detail not shown here. Identical values can stand only once.

Legend:
Assay type in all cases: physicochemical
[1] = Stability study of methylene blue at about 20-25° C. (25/60), six months; set-up: Highest Unknown / Total impurities / Azure B / Azure C: unit not given here; details: stability at 25° C., Trial 1-3
Protocol: (§1) Methylene blue product obtained by this process is then loaded for stability at about 20-25° C. and at about 40° C. Purity and metal content of Methylene blue is tested for up to six months.

[2] = Stability study of methylene blue at about 40° C. (40/75), six months; details: stability at 40° C., Trial 1-3
Protocol: as §1

[3] = pH of formulation containing methylene blue made by the prior-art process; details: methylene blue by process of Fundamental Processes of Dye Chemistry, isolated in the range of 3.0-4.5; pH increases
Description: Desired pH for the methylene blue formulation as per USP is in between 3.0-4.5.
Another area of concern is pH of formulated methylene blue. USP mentions that pH of methylene blue formulation should be in between about 3.0 to about 4.5. In formulation, pH of Methylene blue solution tends to increase drastically when the pH of the active pharmaceutical ingredient (API) is kept in between about 3.0 to about 4.5 as per prior art process. To overcome such a problem, the reaction mass pH is preferably kept less than about 2 and more preferably pH of less than about 1. Suitable acids for the adjustment of pH to below about 1 includes, but is not limited to, hydrochloric acid.

Azure B ([1]; impurity, 6M 25/60): 2.37 and 2.2 and 2.17
Azure C ([1]; impurity, 6M 25/60): 0.01
Highest Unknown ([1]; impurity, 6M 25/60): 0.04 and 0.06 and 0.08
Metal Content Mn ([1]; 6M 25/60): 0.68 ppm and 0.61 ppm and 0.48 ppm
Total impurities ([1]; 6M 25/60): 2.46 and 2.4 and 2.44
Total metal content ([1]; 6M 25/60, sum of Al, Cr, Cu, Mn, Zn): 76.51 ppm and 75.6 ppm and 57.41 ppm
Purity ([1]; profile 6M 25/60): 97.54 and 97.6 and 97.56
Azure B ([2]; impurity, 6M 40/75): 2.41 and 2.26
Azure C ([2]; impurity, 6M 40/75): 0.01
Metal Content Mn ([2]; 6M 40/75): 0.49 ppm and 0.51 ppm
Total impurities ([2]; 6M 40/75): 2.5 and 2.46 and 2.52
Total metal content ([2]; 6M 40/75, sum of Al, Cr, Cu, Mn, Zn): 74.97 ppm and 62.91 ppm and 62.48 ppm
Purity ([2]; profile 6M 40/75): 97.5 and 97.54 and 97.48
pH of the formulation containing methylene blue [3]: above 4.5
SMILES: CN(C)c1ccc2nc3ccc(N(C)C)cc3[s+]c2c1 [Methylene blue, 3,7-bis(dimethylamino)phenothiazin-5-ylium chloride]
